Experimental data as given in patent US20220087996A1, “Histone acetylase p300 inhibitor and use thereof” (HINOVA PHARMACEUTICALS INC., priority 2018, published 2022).
Where two headings read alike, the source gives them in different places.

Assays:
MCF-7 = experiment: Inhibition of proliferation of MCF-7 cells; assay type: cell-based; details: Homo sapiens, MCF7; Breast cancer cell line MCF-7; read-out: IC50 against MCF-7
Protocol: (§1) 1) CWR22RV1 cells were subcultured in cell culture medium, and the cells in good growth condition were seeded in a 96-well plate, 80 μL for each well, and the cell number in each well was 1500. The plate was incubated overnight in a 37° C., 5% CO2 cell incubator. 2) The drug was prepared as 30 mM stock solution with dimethyl sulfoxide (DMSO). Prior to use, the stock solution was diluted 3 times with DMSO, and then further diluted as 3-fold gradient to obtain 9 concentration gradients. Then, each concentration of compound was diluted 200 times with the culture solution (ensuring that the DMSO concentration in the culture system was 0.1%), and two replicate wells were set for each concentration. 20 μL of diluted compound solution was added to the cell culture well (with final concentrations of 10 μM, 3.3 μM. 1.1 μM . . . ), and the plate was gently shaken to mix. In addition, 3 negative control wells containing only cells and 3 blank control wells containing only culture medium were included (6 wells were each added 20 μL DMSO diluted 200 times with culture medium). 2. Result detection: (1) After culturing for 6 days, 10 μL CCK-8 was added to each well, and the plate was continually cultured in a 37° C., 5% CO2 cell incubator for 2.5 h. (2) The absorbance (OD value) was detected at 450 nm using a multifunctional microplate reader. (3) The data were analyzed by Dose-response-inhibition equation in the software GraphPad Prism6, and the IC50 value was obtained.
(§2) Using the same method as Experimental example 2, CWR22RV1 cells were replaced with tumor cells in Table 3, and the IC50 (nM) of the compound according to the present invention against the activity of these tumor cells was tested and calculated.

KMS-12-PE = experiment: Inhibition of proliferation of KMS-12-PE cells; assay type: cell-based; details: Homo sapiens; Lymphoma cell line KMS-12-PE; read-out: IC50 against KMS-12-PE
Protocol: as §1, §2

NCI-H929 = experiment: Inhibition of proliferation of NCI-H929 cells; assay type: cell-based; details: Homo sapiens; Multiple myeloma cell line NCI-H929; read-out: IC50 against NCI-H929
Protocol: as §1, §2

Pfeiffer = experiment: Inhibition of proliferation of Pfeiffer cells; assay type: cell-based; details: Homo sapiens; Lymphoma cell line Pfeiffer; read-out: IC50 against Pfeiffer
Protocol: as §1, §2

DU4475 = experiment: Inhibition of proliferation of DU4475 cells; assay type: cell-based; details: Homo sapiens, DU-4475; Breast cancer cell line DU4475; read-out: IC50 against DU4475
Protocol: as §1, §2

MM.1S = experiment: Inhibition of proliferation of MM.1S cells; assay type: cell-based; details: Homo sapiens, MM1.S; Multiple myeloma cell line MM.1S; read-out: IC50 against MM.1S
Protocol: as §1, §2

EVSA-T = experiment: Inhibition of proliferation of EVSA-T cells; assay type: cell-based; details: Homo sapiens; Breast cancer cell line EVSA-T; read-out: IC50 against EVSA-T
Protocol: as §1, §2

Z-138 = experiment: Inhibition of proliferation of Z-138 cells; assay type: cell-based; details: Homo sapiens; Lymphoma cell line Z-138; read-out: IC50 against Z-138
Protocol: as §1, §2

LNCAP-AR = experiment: Inhibition of proliferation of LNCAP-AR cells; assay type: cell-based; details: Prostate cancer cell line LNCAP-AR; read-out: IC50 against LNCAP-AR
Protocol: as §1, §2

RL = experiment: Inhibition of proliferation of RL cells; assay type: cell-based; details: Homo sapiens; Lymphoma cell line RL; read-out: IC50 against RL
Protocol: as §1, §2

LNCAP = experiment: Inhibition of proliferation of LNCAP cells; assay type: cell-based; details: Homo sapiens; Prostate cancer cell line LNCAP; read-out: IC50 against LNCAP
Protocol: as §1, §2

MM.1R = experiment: Inhibition of proliferation of MM.1R cells; assay type: cell-based; details: Lymphoma cell line MM.1R; read-out: IC50 against MM.1R
Protocol: as §1, §2

KARPAS-422 = experiment: Inhibition of proliferation of KARPAS-422 cells; assay type: cell-based; details: Homo sapiens; Lymphoma cell line KARPAS-422; read-out: IC50 against KARPAS-422
Protocol: as §1, §2

MAVER-1 = experiment: Inhibition of proliferation of MAVER-1 cells; assay type: cell-based; details: Homo sapiens, Maver1; Lymphoma cell line MAVER-1; read-out: IC50 against MAVER-1
Protocol: as §1, §2

KMS-11 = experiment: Inhibition of proliferation of KMS-11 cells; assay type: cell-based; details: Homo sapiens; Multiple myeloma cell line KMS-11; read-out: IC50 against KMS-11
Protocol: as §1, §2

OPM-2 = experiment: Inhibition of proliferation of OPM-2 cells; assay type: cell-based; details: Homo sapiens; Multiple myeloma cell line OPM-2; read-out: IC50 against OPM-2
Protocol: as §1, §2

OCI-AML3 = experiment: Inhibition of proliferation of OCI-AML3 cells; assay type: cell-based; details: Homo sapiens, OCI-AML-3; Leukemia cell line OCI-AML3; read-out: IC50 against OCI-AML3
Protocol: as §1, §2

HCC1428 = experiment: Inhibition of proliferation of HCC1428 cells; assay type: cell-based; details: Homo sapiens; Breast cancer cell line HCC1428; read-out: IC50 against HCC1428
Protocol: as §1, §2

MOLM-16 = experiment: Inhibition of proliferation of MOLM-16 cells; assay type: cell-based; details: MOLM16; Leukemia cell line MOLM-16; read-out: IC50 against MOLM-16
Protocol: as §1, §2

MDA-MB-453 = experiment: Inhibition of proliferation of MDA-MB-453 cells; assay type: cell-based; details: Homo sapiens; Breast cancer cell line MDA-MB-453; read-out: IC50 against MDA-MB-453
Protocol: as §1, §2

ATN-1 = experiment: Inhibition of proliferation of ATN-1 cells; assay type: cell-based; details: Homo sapiens; Leukemia cell line ATN-1; read-out: IC50 against ATN-1
Protocol: as §1, §2

TALL-1 = experiment: Inhibition of proliferation of TALL-1 cells; assay type: cell-based; details: Homo sapiens; Leukemia cell line TALL-1; read-out: IC50 against TALL-1
Protocol: as §1, §2

HEL = experiment: Inhibition of proliferation of HEL cells; assay type: cell-based; details: Homo sapiens; Leukemia cell line HEL; read-out: IC50 against HEL
Protocol: as §1, §2

VCAP = experiment: Inhibition of proliferation of VCAP cells; assay type: cell-based; details: Homo sapiens; Prostate cancer cell line VCAP; read-out: IC50 against VCAP
Protocol: as §1, §2

MT-2 = experiment: Inhibition of proliferation of MT-2 cells; assay type: cell-based; details: Homo sapiens, MT2; Leukemia cell line MT-2; read-out: IC50 against MT-2
Protocol: as §1, §2

CWR22RV1 cells = experiment: Inhibition of proliferation of CWR22RV1 cells (CCK-8); assay type: cell-based, human; details: Homo sapiens, CWR22Rv1, 144 h, 6 days culture
Outline: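 Proliferation read-out was CCK-8 absorbance at 450 nm after 2.5 h, following 6-day culture with compound. Each well held 1500 CWR22RV1 cells; the 3-fold, 9-point series started at a final 10 μM in 0.1% DMSO. Dose-response-inhibition fit gave the IC50.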

KMS-20 = experiment: Inhibition of proliferation of KMS-20 cells; assay type: cell-based; details: Multiple myeloma cell line KMS-20; read-out: IC50 against KMS-20
Protocol: as §1, §2

MOLT-4 = experiment: Inhibition of proliferation of MOLT-4 cells; assay type: cell-based; details: Homo sapiens; Leukemia cell line MOLT-4; read-out: IC50 against MOLT-4
Protocol: as §1, §2

MLMA = experiment: Inhibition of proliferation of MLMA cells; assay type: cell-based; details: Lymphoma cell line MLMA; read-out: IC50 against MLMA
Protocol: as §1, §2

BT-474 = experiment: Inhibition of proliferation of BT-474 cells; assay type: cell-based; details: Homo sapiens; Breast cancer cell line BT-474; read-out: IC50 against BT-474
Protocol: as §1, §2

SMILES: CNC(=O)Nc1cc2c(cc1F)[C@@]1(CC2)OC(=O)N(CC(=O)N2[C@@H](C)CC[C@H]2c2cc(F)c(F)c(F)c2)C1=O [Example 390, 1-((R)-6-fluoro-3′-(2-((2S,5S)-2-methyl-5-(3,4,5-trifluorophenyl)pyrrolidin-1-yl)-2-oxoethyl)-2′,4′-dioxo-2,3-dihydrospiro[indene-1,5′-oxazolidine]-5-yl)-3-methylurea]
- IC50 (MCF-7): ≤ 500 nM
- IC50 (KMS-12-PE): 500 to 2000 nM
- IC50 (NCI-H929): ≤ 500 nM
- IC50 (Pfeiffer): ≤ 500 nM
- IC50 (DU4475): 500 to 2000 nM
- IC50 (MM.1S): 500 to 2000 nM
- IC50 (EVSA-T): 500 to 2000 nM
- IC50 (Z-138): ≤ 500 nM
- IC50 (LNCAP-AR): ≤ 500 nM
- IC50 (RL): ≤ 500 nM
- IC50 (LNCAP): ≤ 500 nM
- IC50 (MM.1R): 500 to 2000 nM
- IC50 (KARPAS-422): ≤ 500 nM
- IC50 (MAVER-1): ≤ 500 nM
- IC50 (KMS-11): ≤ 500 nM
- IC50 (OPM-2): ≤ 500 nM
- IC50 (OCI-AML3): ≤ 500 nM
- IC50 (HCC1428): ≤ 500 nM
- IC50 (MOLM-16): ≤ 500 nM
- IC50 (MDA-MB-453): ≤ 500 nM
- IC50 (ATN-1): ≤ 500 nM
- IC50 (TALL-1): ≤ 500 nM
- IC50 (HEL): ≤ 500 nM
- IC50 (VCAP): ≤ 500 nM
- IC50 (MT-2): 500 to 2000 nM
- IC50 (CWR22RV1 cells; read-out: IC50 against CWR22RV1 cells): ≤ 500 nM
- IC50 (CWR22RV1 cells; read-out: IC50 against CWR22RV1 cells (text)): ≤ 500 nM
- IC50 (KMS-20): ≤ 500 nM
- IC50 (MOLT-4): ≤ 500 nM
- IC50 (MLMA): ≤ 500 nM
- IC50 (BT-474): ≤ 500 nM
